Counter-ions that a name gives are not always drawn.
tested on: inflammation induced by tetradecanoyl phorbol acetate (TPA); experiment: TPA Inflammation Inhibition Test; type: in vivo, mice; settings: mouse ear edema, topical, 100 mg/ear, four hours
Protocol: The TPA model mimics many of the inflammatory change which occur in human skin diseases such as psoriasis, since elevated levels of inflammatory arachidonic acid metabolites are found and an influx of polymorphonuclear leukocytes is observed. The test procedure used to evaluate the compounds of Formula (I) is as follows: the test compound (100 mg/ear) is applied to both ears of mice in an appropriate vehicle, such as acetone, and then the inflammatory stimulus (TPA) is applied to the right ear. Four hours later, the edema is measured by removing standard size discs from the ears using a biopsy punch. A control group of animals receives TPA in vehicle applied to the right ear, and vehicle alone to the left ear.

| SMILES | % Inhibition of Control Swelling [%] |
| --- | --- |
| COc1ccc(CNCCC(=O)c2ccc(F)cc2)c2ccccc12 [Example 7, 1-(4-Fluorophenyl)-3-[(4-methoxy-1-naphthaIenyl)-methylamino]-1-propanone Hydrochloride] | 21 |
| CC(C)c1ccc2c(c1)CCC1C(C)(CNCCC(=O)c3ccccc3)CCCC21C (stereo not shown) [Example 21, 1-Phenyl-3-([4a-dimethyl-7-(1-methylethyl)-1,2,3,4,4a,9,10,10aoctahydro-1-phenanthren-1-yl]-methylamino)-1-propanone 4-Methylbenzenesulfonate] | 31 |
| CCCCCCC(C)OCCCC(=O)c1ccc(F)cc1 (stereo not drawn) [Example 37, 1-(4-Fluorophenyl)-4-(d-1-methylheptyloxy)-1-butanone] | 20 |
| CC(C)c1ccc2c(c1)CCC1C(C)(CNCCC(=O)c3ccc(F)cc3)CCCC21C.Cl (stereo not shown) [Example 52, 3-([1,4a-Dimethyl-1,2,3,4,4a,9,10,10a-octahydro-7-(1-methylethyl)-1-phenanthrenyl]methylamino)-1-(4-fluorophenyl)-1-propanone Hydrochloride] | 40 |
